Assay results: ChEMBL document CHEMBL1158280, “Specific inhibition of human immunodeficiency virus type 1 reverse transcriptase mediated by soulattrolide, a coumarin isolated from the latex of calophyllum teysmannii” (J Nat Prod, 1996)
pIC50: −log10 of the molar value. One block for each compound: values may come before it. Active and inactive are the calls of the source. The rule behind the calls is not given here.

Legend:
DNA polymerase beta [1] = target: T1, DNA polymerase beta (Homo sapiens, UniProt P06746); assay: Inhibition of DNA polymerase beta
[2] = target: T2, Human immunodeficiency virus type 1 reverse transcriptase (Human immunodeficiency virus 1, UniProt Q72547); assay: Inhibition of DNA dependent DNA polymerase activity of HIV1 recombinant reverse transcriptase p66/p51
[3] = target: T2, Human immunodeficiency virus type 1 reverse transcriptase; assay: Inhibition of RNA dependent DNA polymerase activity of HIV1 recombinant reverse transcriptase p66/p51
[4] = Inhibition of RNA polymerase at 495 uM
[5] = tested on: Avian myeloblastosis virus; assay: Inhibition of Avian myeloblastosis virus reverse transcriptase at 495 uM
[6] = target: Human immunodeficiency virus type 1 reverse transcriptase (Human immunodeficiency virus 1) (UniProt Q72547); assay: Inhibition of DNA dependent DNA polymerase activity of HIV1 recombinant reverse transcriptase p66/p51 at 495 uM
DNA polymerase beta [7] = target: T1, DNA polymerase beta; assay: Inhibition of DNA polymerase beta at 495 uM
[8] = Inhibition of RNA polymerase
[9] = tested on: Human immunodeficiency virus 2; assay: Inhibition of HIV2 reverse transcriptase p68/p54 expressed in Escherichia coli at 495 uM
[10] = tested on: Human immunodeficiency virus 2; assay: Inhibition of HIV2 reverse transcriptase p68/p54 expressed in Escherichia coli
[11] = target: Human immunodeficiency virus type 1 reverse transcriptase (Human immunodeficiency virus 1) (UniProt Q72547); assay: Inhibition of RNA dependent DNA polymerase activity of HIV1 recombinant reverse transcriptase p66/p51 at 495 uM
Escherichia coli = assay: Inhibition of Escherichia coli RNase H at 495 uM
[12] = tested on: Human immunodeficiency virus 1; assay: Inhibition of TIBO-resistant HIV1 reverse transcriptase p66/p51 Tyr181 mutant expressed in Escherichia coli
[13] = tested on: Human immunodeficiency virus 1; assay: Inhibition of TIBO-resistant HIV1 reverse transcriptase p66/p51 Tyr181 mutant expressed in Escherichia coli at 495 uM
[14] = target: T3, DNA polymerase alpha catalytic subunit (Homo sapiens) (UniProt P09884); assay: Inhibition of DNA polymerase alpha at 495 uM
T3 sequence (whole entry): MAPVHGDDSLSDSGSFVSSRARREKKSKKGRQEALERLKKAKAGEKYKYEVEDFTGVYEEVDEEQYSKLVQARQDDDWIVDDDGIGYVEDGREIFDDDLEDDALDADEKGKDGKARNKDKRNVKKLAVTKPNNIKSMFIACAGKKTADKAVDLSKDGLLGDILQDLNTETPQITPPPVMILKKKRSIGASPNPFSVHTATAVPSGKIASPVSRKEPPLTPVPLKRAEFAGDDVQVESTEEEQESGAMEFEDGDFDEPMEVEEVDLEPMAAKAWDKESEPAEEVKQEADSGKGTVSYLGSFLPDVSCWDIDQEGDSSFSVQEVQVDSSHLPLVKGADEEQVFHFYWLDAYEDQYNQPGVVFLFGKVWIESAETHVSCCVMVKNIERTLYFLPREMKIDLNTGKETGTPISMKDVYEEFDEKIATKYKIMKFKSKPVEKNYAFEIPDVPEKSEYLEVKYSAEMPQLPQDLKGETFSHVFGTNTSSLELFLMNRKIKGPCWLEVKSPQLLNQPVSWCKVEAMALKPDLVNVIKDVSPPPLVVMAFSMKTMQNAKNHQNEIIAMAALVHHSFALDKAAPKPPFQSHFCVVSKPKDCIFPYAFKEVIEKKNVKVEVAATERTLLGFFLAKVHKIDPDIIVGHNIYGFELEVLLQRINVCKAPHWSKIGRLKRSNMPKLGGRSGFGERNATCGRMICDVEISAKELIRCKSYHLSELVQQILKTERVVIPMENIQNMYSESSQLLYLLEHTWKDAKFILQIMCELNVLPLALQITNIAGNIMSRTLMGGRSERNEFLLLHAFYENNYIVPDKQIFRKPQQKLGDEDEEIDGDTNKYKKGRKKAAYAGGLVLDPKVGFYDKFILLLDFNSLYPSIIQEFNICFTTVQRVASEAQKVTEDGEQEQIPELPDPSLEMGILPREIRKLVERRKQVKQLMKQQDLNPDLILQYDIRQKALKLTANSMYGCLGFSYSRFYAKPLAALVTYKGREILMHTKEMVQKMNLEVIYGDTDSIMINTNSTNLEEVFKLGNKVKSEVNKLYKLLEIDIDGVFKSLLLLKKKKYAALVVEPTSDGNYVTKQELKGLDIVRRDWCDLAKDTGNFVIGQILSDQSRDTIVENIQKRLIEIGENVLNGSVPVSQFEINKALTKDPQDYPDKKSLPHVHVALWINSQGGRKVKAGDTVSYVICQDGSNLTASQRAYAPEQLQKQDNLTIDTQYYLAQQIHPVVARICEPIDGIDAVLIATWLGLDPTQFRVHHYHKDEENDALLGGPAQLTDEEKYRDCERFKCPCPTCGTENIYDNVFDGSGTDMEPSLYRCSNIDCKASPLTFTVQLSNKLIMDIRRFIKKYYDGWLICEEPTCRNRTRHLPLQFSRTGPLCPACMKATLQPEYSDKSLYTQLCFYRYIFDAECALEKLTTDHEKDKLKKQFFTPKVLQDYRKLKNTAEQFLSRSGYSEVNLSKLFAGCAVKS

[15] = target: T3, DNA polymerase alpha catalytic subunit (Homo sapiens); assay: (§1) Inhibition of DNA polymerase alpha
[16] = tested on: Avian myeloblastosis virus; assay: Inhibition of Avian myeloblastosis virus reverse transcriptase
[17] = Inhibition of Escherichia coli RNase H
[18] = target: T4, DNA polymerase alpha catalytic subunit (Homo sapiens, UniProt P09884); assay: as §1
T4 sequence (P09884 whole entry): T3 sequence (whole entry)

pIC50 (DNA polymerase beta [1]): 3.69
pIC50 [2]: 6.49
Structure (SMILES): CCCc1cc(=O)oc2c3c(c4c(c12)OC(C)(C)C=C4)O[C@H](C)[C@@H](C)[C@@H]3O [CALANOLIDE A]

pIC50 [3]: 5.85
pIC50 [2]: 6.54
Structure (SMILES): CCCc1cc(=O)oc2c3c(c4c(c12)OC(C)(C)C=C4)O[C@@H](C)[C@H](C)[C@@H]3O [COSTATOLIDE]

Structure (SMILES): C[C@H]1[C@H](C)Oc2c3c(c4c(-c5ccccc5)cc(=O)oc4c2[C@H]1O)OC(C)(C)C=C3 [SOULATTROLIDE]
pIC50 [3]: 6.14
inhibition [4]: 29.7%
inhibition [5]: 20.2%
inhibition [6]: 87.2%
inhibition (DNA polymerase beta [7]): 49.6%
Activity [8]: inactive
inhibition [9]: 0.7%
Activity [10]: inactive
inhibition [11]: 96.2%
inhibition (Escherichia coli): 86.5%
Activity [12]: inactive
inhibition [13]: 31.5%
pIC50 (DNA polymerase beta [1]): < 3.31
inhibition [14]: 28.1%
Activity [15]: inactive
pIC50 [2]: 6.47
Activity [16]: inactive
pIC50 [17]: 4.16

pIC50 (DNA polymerase beta [1]): 4.80
pIC50 [18]: 4.96
pIC50 [2]: 7.29
Structure (SMILES): Cc1cn([C@H]2C[C@H](N=[N+]=[N-])[C@@H](CO[P@](=O)(O)O[P@](=O)(O)OP(=O)(O)O)O2)c(=O)[nH]c1=O [ZIDOVUDINE TRIPHOSPHATE]
